Measurements published in US8697739B2, “Bicyclic acetyl-CoA carboxylase inhibitors and uses thereof” (Novartis AG, priority 2010, dated 2014).

Biological target: T1, human acetyl-CoA carboxylase 2 (ACC2) (Homo sapiens, UniProt O00763)
T1 construct: The cDNA encoding amino acids 144 to 2458 of human acetyl-CoA carboxylase 2; made in house; host or cells: Sf9 insect cells (baculovirus, pFastBac1)
Assay: Acetyl-CoA carboxylase enzyme assay (malonyl-CoA formation by LC/MS/MS)
Format: biochemical
Details: recombinant human ACC2 (aa 144-2458); read-out: IC50 ACC2
How it was run: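 Malonyl-CoA formation was read by LC/MS/MS MRM against a [13C3]-malonyl-CoA internal standard, after acetic acid quench. The enzyme was baculovirus/Sf9-expressed human ACC2 residues 144–2458, given 15 minutes room-temperature compound preincubation in HEPES pH 7.5 buffer with MgCl2, citrate and DTT. Substrate solution held 50 μM acetyl-CoA, 120 μM ATP and 2 mM KHCO3.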

T1 sequence (O00763 144-2458): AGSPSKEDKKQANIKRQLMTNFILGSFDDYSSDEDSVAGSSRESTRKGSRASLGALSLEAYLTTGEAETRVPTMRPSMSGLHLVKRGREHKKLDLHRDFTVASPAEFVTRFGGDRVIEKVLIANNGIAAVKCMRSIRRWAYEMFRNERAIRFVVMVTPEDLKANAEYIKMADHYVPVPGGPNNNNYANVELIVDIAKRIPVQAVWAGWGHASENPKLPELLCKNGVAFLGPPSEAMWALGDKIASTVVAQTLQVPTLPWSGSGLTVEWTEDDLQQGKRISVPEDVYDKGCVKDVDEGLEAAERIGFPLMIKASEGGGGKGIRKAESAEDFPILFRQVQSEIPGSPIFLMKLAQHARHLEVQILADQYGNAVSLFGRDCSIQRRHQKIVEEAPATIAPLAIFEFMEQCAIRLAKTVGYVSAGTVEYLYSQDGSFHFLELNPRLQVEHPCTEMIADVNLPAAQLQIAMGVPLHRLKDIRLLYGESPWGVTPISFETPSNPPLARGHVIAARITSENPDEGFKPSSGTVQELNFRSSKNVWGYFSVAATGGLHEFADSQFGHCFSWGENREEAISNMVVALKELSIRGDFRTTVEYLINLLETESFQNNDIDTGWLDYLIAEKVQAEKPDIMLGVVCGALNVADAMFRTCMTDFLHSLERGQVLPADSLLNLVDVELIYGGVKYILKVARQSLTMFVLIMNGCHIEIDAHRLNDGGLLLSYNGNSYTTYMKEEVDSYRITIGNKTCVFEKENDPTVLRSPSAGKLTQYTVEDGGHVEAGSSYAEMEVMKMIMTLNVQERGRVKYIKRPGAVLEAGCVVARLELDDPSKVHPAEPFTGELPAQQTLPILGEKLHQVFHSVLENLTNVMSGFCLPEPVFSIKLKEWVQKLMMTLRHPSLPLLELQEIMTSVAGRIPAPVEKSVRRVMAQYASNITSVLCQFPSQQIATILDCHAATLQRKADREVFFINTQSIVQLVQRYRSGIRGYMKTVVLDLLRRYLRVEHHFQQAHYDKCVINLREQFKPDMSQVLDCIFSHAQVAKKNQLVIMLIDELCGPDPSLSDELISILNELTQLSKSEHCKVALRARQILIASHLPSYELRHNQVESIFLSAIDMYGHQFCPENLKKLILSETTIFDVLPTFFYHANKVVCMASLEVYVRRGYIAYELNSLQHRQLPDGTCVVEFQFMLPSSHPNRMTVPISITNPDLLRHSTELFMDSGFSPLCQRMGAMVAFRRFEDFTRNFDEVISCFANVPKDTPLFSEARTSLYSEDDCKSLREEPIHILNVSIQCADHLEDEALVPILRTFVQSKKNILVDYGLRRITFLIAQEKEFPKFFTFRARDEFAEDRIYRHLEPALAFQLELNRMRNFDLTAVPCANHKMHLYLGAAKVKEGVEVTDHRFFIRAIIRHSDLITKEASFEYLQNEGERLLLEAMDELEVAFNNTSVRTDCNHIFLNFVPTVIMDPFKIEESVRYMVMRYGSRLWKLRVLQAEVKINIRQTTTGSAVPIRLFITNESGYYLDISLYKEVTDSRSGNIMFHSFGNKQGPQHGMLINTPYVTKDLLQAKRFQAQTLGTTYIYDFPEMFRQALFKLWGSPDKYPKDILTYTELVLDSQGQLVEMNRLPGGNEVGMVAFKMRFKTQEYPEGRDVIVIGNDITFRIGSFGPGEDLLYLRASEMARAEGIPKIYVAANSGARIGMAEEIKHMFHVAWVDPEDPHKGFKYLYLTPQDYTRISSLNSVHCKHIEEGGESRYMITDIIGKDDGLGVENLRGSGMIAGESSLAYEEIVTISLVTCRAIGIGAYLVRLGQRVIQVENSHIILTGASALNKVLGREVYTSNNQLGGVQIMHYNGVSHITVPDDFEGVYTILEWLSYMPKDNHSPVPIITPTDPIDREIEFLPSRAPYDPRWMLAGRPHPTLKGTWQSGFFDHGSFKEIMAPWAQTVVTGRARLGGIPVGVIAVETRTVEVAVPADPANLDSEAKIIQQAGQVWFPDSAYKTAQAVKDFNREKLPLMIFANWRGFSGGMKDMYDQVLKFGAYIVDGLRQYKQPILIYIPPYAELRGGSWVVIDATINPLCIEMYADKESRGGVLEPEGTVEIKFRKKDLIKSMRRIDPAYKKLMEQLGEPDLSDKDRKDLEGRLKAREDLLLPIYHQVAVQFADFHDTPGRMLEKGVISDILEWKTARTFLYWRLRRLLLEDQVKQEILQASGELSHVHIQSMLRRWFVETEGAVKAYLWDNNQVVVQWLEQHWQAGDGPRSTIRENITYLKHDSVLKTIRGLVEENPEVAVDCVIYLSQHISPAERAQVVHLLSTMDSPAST

Point of comparison: `CC(NC(=O)C1CCC(NS(=O)(=O)c2cnc3c(c2)NC2CCCCC2N3)CC1)c1ccc(F)cc1` [Example 162, (1S,4R)-N-((R)-1-(4-fluorophenyl)ethyl)-4-((5aS,9aS)-5,5a,6,7,8,9,9a,10-octahydropyrido[3,2-b]quinoxaline-3-sulfonamido)cyclohexanecarboxamide], IC50 0.125 µM. Against it:
- CC(C)[C@H]1COCCN1C(=O)[C@H]1CC[C@H](NS(=O)(=O)c2ccc3nc(N4CCN(C)CC4)ccc3c2)CC1 [Example 260, N-((1S,4r)-4-((S)-3-isopropylmorpholine-4-carbonyl)cyclohexyl)-2-(4-methylpiperazin-1-yl)quinoline-6-sulfonamide] — 24-fold higher, 2.96 µM
- Cn1c(-c2ccc(CO)cc2)cc2ccc(S(=O)(=O)N[C@H]3CC[C@H](C(=O)N4CCNC(=O)C4)CC3)cc21 [Example 347, 2-(4-(hydroxymethyl)phenyl)-1-methyl-N-((1r,4r)-4-(3-oxopiperazine-1-carbonyl)cyclohexyl)-1H-indole-6-sulfonamide] — within 1.5-fold, 0.12 µM
- C[C@@H](NC(=O)C12CC3CC(C1)C(NS(=O)(=O)c1cnc4c(c1)NCCN4)C(C3)C2)c1ccc(F)cc1 (stereo partly drawn) [Example 262, 4-(1,2,3,4-Tetrahydro-pyrido[2,3-b]pyrazine-7-sulfonylamino)-adamantane-1-carboxylic acid [(R)-1-(4-fluoro-phenyl)-ethyl]-amide] — 6.2-fold lower, 0.02 µM
- CC(C)OC(=O)c1ccc(NS(=O)(=O)c2ccc3[nH]c(-c4ccccc4)nc3c2)cc1 [Example 488, isopropyl 4-(2-phenyl-1H-benzo[d]imidazole-5-sulfonamido)benzoate] — 8.2-fold higher, 1.03 µM
- CCOc1ccc2cc(S(=O)(=O)N[C@H]3CC[C@H](C(=O)N4CCNC[C@@H]4c4ccccc4)CC3)ccc2n1 [Example 234, 2-ethoxy-N-((1S,4r)-4-((S)-2-phenylpiperazine-1-carbonyl)cyclohexyl)quinoline-6-sulfonamide] — 6.2-fold lower, 0.02 µM
- O=C([C@H]1CC[C@H](NS(=O)(=O)c2ccc3[nH]c(-c4ccc(N5CCNCC5)cc4)nc3c2)CC1)N1CCOCC1 [Example 104, N-((1r,4r)-4-(morpholine-4-carbonyl)cyclohexyl)-2-(4-(piperazin-1-yl)phenyl)-1H-benzo[d]imidazole-5-sulfonamide] — 6.2-fold lower, 0.02 µM
- CC(C)OC(=O)c1ccc(NS(=O)(=O)c2ccc3[nH]c(Nc4cccc([N+](=O)[O-])c4)nc3c2)cc1 [Example 538, isopropyl 4-(2-(3-nitrophenylamino)-1H-benzo[d]imidazole-5-sulfonamido)benzoate] — 1.6-fold lower, 0.077 µM
- CC(C)OC(=O)c1ccc(NS(=O)(=O)c2ccc3nc(-c4ccncc4)[nH]c3c2)cc1 [Example 515, isopropyl 4-(2-(pyridin-4-yl)-1H-benzo[d]imidazole-6-sulfonamido)benzoate] — 23-fold higher, 2.86 µM
- C[C@@H](NC(=O)[C@H]1CC[C@H](NS(=O)(=O)c2ccc3nc(OC(C)(C)CO)ccc3c2)CC1)c1ccc(F)cc1 [Example 80, (1r,4R)-N-((R)-1-(4-fluorophenyl)ethyl)-4-(2-(1-hydroxy-2-methylpropan-2-yloxy)quinoline-6-sulfonamido)cyclohexanecarboxamide] — 3.1-fold lower, 0.04 µM
- O=C([C@H]1CC[C@H](NS(=O)(=O)c2cnc3ccccc3c2)CC1)N1CCCC1C(F)(F)F (stereo partly drawn) [Example 48, N-((1r,4r)-4-(2-(trifluoromethyl)pyrrolidine-1-carbonyl)cyclohexyl)quinoline-3-sulfonamide] — 260-fold higher, 32.8 µM
- CC[C@H]1CCc2cc(S(=O)(=O)N[C@H]3CC[C@H](C(=O)N[C@H](C)c4ccc(F)cc4)CC3)ccc2N1 [Example 170, (1r,4R)-4-((S)-2-ethyl-1,2,3,4-tetrahydroquinoline-6-sulfonamido)-N-((R)-1-(4-fluorophenyl)ethyl)cyclohexanecarboxamide] — within 1.5-fold, 0.09 µM
- O=C([C@H]1CC[C@H](NS(=O)(=O)c2ccc3cc(-c4ccccc4)[nH]c3c2)CC1)N1CCOC[C@@H]1C1CC1 [Example 472, N-((1S,4r)-4-((S)-3-cyclopropylmorpholine-4-carbonyl)cyclohexyl)-2-phenyl-1H-indole-6-sulfonamide] — lower, < 0.01 µM
- C[C@@H](NC(=O)[C@H]1CC[C@H](NS(=O)(=O)c2ccc3[nH]c([C@@H]4CNCCN4)nc3c2)CC1)c1ccc(F)cc1 [Example 108, (1r,4R)-N-((R)-1-(4-fluorophenyl)ethyl)-4-(2-((S)-piperazin-2-yl)-1H-benzo[d]imidazole-5-sulfonamido)cyclohexanecarboxamide] — 10-fold higher, 1.27 µM
- COc1cccc(-c2nc3ccc(S(=O)(=O)Nc4ccc(C(=O)OC(C)C)cc4)cc3[nH]2)c1 [Example 500, isopropyl 4-(2-(3-methoxyphenyl)-1H-benzo[d]imidazole-6-sulfonamido)benzoate] — 12-fold higher, 1.49 µM
- CCOc1ccc2cc(S(=O)(=O)N[C@H]3CC[C@H](C(=O)N[C@H](C)c4ccccn4)CC3)ccc2n1 [Example 82, (1r,4R)-4-(2-ethoxyquinoline-6-sulfonamido)-N-((R)-1-(pyridin-2-yl)ethyl)cyclohexanecarboxamide] — 6.8-fold higher, 0.845 µM
- CC(C)N(C)C(=O)[C@H]1CC[C@H](NS(=O)(=O)c2ccc3[nH]c(-c4ccc(N5CCN(C)CC5)cc4)nc3c2)CC1 [Example 564, (1r,4r)-N-isopropyl-N-methyl-4-(2-(4-(4-methylpiperazin-1-yl)phenyl)-1H-benzo[d]imidazole-5-sulfonamido)cyclohexanecarboxamide] — 4.6-fold lower, 0.027 µM
- C[C@@H](NC(=O)[C@H]1CC[C@H](NS(=O)(=O)c2ccc3cc(CCCO)[nH]c3c2)CC1)c1ccc(F)cc1 [Example 319, (1r,4R)-N-((R)-1-(4-fluorophenyl)ethyl)-4-(2-(3-hydroxypropyl)-1H-indole-6-sulfonamido)cyclohexanecarboxamide] — 5-fold lower, 0.025 µM
- CC(NC(=O)[C@H]1CC[C@H](NS(=O)(=O)c2cnc3ccccc3c2)CC1)c1cccc(F)c1 (stereo partly drawn) [Example 44, (1r,4r)-N-(1-(3-fluorophenyl)ethyl)-4-(quinoline-3-sulfonamido)cyclohexanecarboxamide] — 3.6-fold higher, 0.45 µM
- COCCOc1ccc(-c2cc3ccc(S(=O)(=O)N[C@H]4CC[C@H](C(=O)N5CCOC[C@@H]5C(C)C)CC4)cc3n2C)cc1 [Example 447, N-((1S,4r)-4-((S)-3-isopropylmorpholine-4-carbonyl)cyclohexyl)-2-(4-(2-methoxyethoxy)phenyl)-1-methyl-1H-indole-6-sulfonamide] — 5-fold lower, 0.025 µM
- Cc1ccccc1-c1cc2ccc(S(=O)(=O)N[C@H]3CC[C@H](C(=O)N4CCNC[C@@H]4c4ccccc4)CC3)cc2[nH]1 [Example 325, N-((1S,4r)-4-((S)-2-phenylpiperazine-1-carbonyl)cyclohexyl)-2-o-tolyl-1H-indole-6-sulfonamide] — lower, < 0.01 µM
- Cc1c(-c2ccc(CCC(=O)O)cc2)n(C)c2cc(S(=O)(=O)N[C@H]3CC[C@H](C(=O)N4CCOC[C@@H]4C4CC4)CC3)ccc12 [Example 484, 3-(4-(6-(N-((1S,4r)-4-((S)-3-cyclopropylmorpholine-4-carbonyl)cyclohexyl)sulfamoyl)-1,3-dimethyl-1H-indol-2-yl)phenyl)propanoic acid] — lower, < 0.01 µM
- C[C@@H](NC(=O)[C@H]1CC[C@H](NS(=O)(=O)c2cccc3nc(-c4ccccc4)cn23)CC1)c1ccc(F)cc1 [Example 65, (1r,4R)-N-((R)-1-(4-fluorophenyl)ethyl)-4-(2-phenylimidazo[1,2-a]pyridine-5-sulfonamido)cyclohexanecarboxamide] — within 1.5-fold, 0.149 µM
- CC(C)(C)OC(=O)N1CCN(C(=O)[C@H]2CC[C@H](NS(=O)(=O)c3ccc4c(c3)NCCC4)CC2)C(c2ccccc2)C1 (stereo partly drawn) [Example 174, tert-butyl 3-phenyl-4-((1r,4r)-4-(1,2,3,4-tetrahydroquinoline-7-sulfonamido)cyclohexanecarbonyl)piperazine-1-carboxylate] — 2.8-fold lower, 0.045 µM
- C[C@@H](NC(=O)[C@H]1CC[C@H](NS(=O)(=O)c2ccc3c(c2)OCCN3C)CC1)c1ccc(F)cc1 [Example 122, (1r,4R)-N-((R)-1-(4-fluorophenyl)ethyl)-4-(4-methyl-3,4-dihydro-2H-benzo[b][1,4]oxazine-7-sulfonamido)cyclohexanecarboxamide] — 7.8-fold lower, 0.016 µM
- C[C@@H](NC(=O)[C@H]1CC[C@H](NS(=O)(=O)c2ccc3[nH]cnc3c2)CC1)c1ccc(F)cc1 [Example 107, (1r,4R)-4-(1H-benzo[d]imidazole-5-sulfonamido)-N-((R)-1-(4-fluorophenyl)ethyl)cyclohexanecarboxamide] — 1.6-fold higher, 0.205 µM
- COc1ccccc1-c1nc2ccc(S(=O)(=O)Nc3ccc(C(=O)OC(C)C)cc3)cc2[nH]1 [Example 492, isopropyl 4-(2-(2-methoxyphenyl)-1H-benzo[d]imidazole-6-sulfonamido)benzoate] — 11-fold higher, 1.35 µM
- C[C@@H](NC(=O)[C@H]1CC[C@H](NS(=O)(=O)c2ccc3c(c2)N(C)[C@@H](C(=O)O)CC3)CC1)c1ccc(F)cc1 [Example 251, (R)-7-(N-((1R,4R)-4-((R)-1-(4-fluorophenyl)ethylcarbamoyl)cyclohexyl)sulfamoyl)-1-methyl-1,2,3,4-tetrahydroquinoline-2-carboxylic acid] — 3.6-fold lower, 0.035 µM
- C[C@@H](NC(=O)[C@H]1CC[C@H](NS(=O)(=O)c2ccc3nc(OC4COC4)ccc3c2)CC1)c1ccc(F)cc1 [Example 64, (1r,4R)-N-((R)-1-(4-fluorophenyl)ethyl)-4-(2-(oxetan-3-yloxy)quinoline-6-sulfonamido)cyclohexanecarboxamide] — 3-fold lower, 0.042 µM
- COCCc1ccc(-c2[nH]c3cc(S(=O)(=O)N[C@H]4CC[C@H](C(=O)N5CCOC[C@@H]5C5CC5)CC4)ccc3c2Cl)cc1 [Example 471, 3-chloro-N-((1S,4r)-4-((S)-3-cyclopropylmorpholine-4-carbonyl)cyclohexyl)-2-(4-(2-methoxyethyl)phenyl)-1H-indole-6-sulfonamide] — lower, < 0.01 µM
